Measured values reported in PubChem BioAssay (NCI).
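A five-concentration, 48-hour dose response in 96-well plates underlies each endpoint, interpolated linearly between surrounding concentrations. At the GI50, growth is halved. Definition used: TGI = concentration required for complete inhibition of growth.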

Assays:
Test in all cases: NCI tumour cell line growth inhibition, 48 h
786-0 renal = test system: 786-0 renal
A498 renal = test system: A498 renal
A549 NSCLC = test system: A549 NSCLC
ACHN renal = test system: ACHN renal
BT-549 breast = test system: BT-549 breast
CAKI-1 renal = test system: CAKI-1 renal
CCRF-CEM leukemia = test system: CCRF-CEM leukemia
COLO 205 colon = test system: COLO 205 colon
DU-145 prostate = test system: DU-145 prostate
EKVX NSCLC = test system: EKVX NSCLC
HCC-2998 colon = test system: HCC-2998 colon
HCT-116 colon = test system: HCT-116 colon
HCT-15 colon = test system: HCT-15 colon
HL-60(TB) leukemia = test system: HL-60(TB) leukemia
HOP-62 NSCLC = test system: HOP-62 NSCLC
HOP-92 NSCLC = test system: HOP-92 NSCLC
HS 578T breast = test system: HS 578T breast
HT29 colon = test system: HT29 colon
IGROV1 ovarian = test system: IGROV1 ovarian
K-562 leukemia = test system: K-562 leukemia
KM12 colon = test system: KM12 colon
LOX IMVI melanoma = test system: LOX IMVI melanoma
M14 melanoma = test system: M14 melanoma
MALME-3M melanoma = test system: MALME-3M melanoma
MCF7 breast = test system: MCF7 breast
MDA-MB-231 breast = test system: MDA-MB-231 breast
MDA-MB-435 = test system: MDA-MB-435
MDA-MB-468 breast = test system: MDA-MB-468 breast
MOLT-4 leukemia = test system: MOLT-4 leukemia
NCI-H226 lung = test system: NCI-H226 lung
NCI-H23 lung = test system: NCI-H23 lung
NCI-H460 lung = test system: NCI-H460 lung
NCI-H522 lung = test system: NCI-H522 lung
NCI/ADR-RES ovarian = test system: NCI/ADR-RES ovarian
OVCAR-3 ovarian = test system: OVCAR-3 ovarian
OVCAR-4 ovarian = test system: OVCAR-4 ovarian
OVCAR-5 ovarian = test system: OVCAR-5 ovarian
OVCAR-8 ovarian = test system: OVCAR-8 ovarian
PC-3 prostate = test system: PC-3 prostate
RPMI-8226 leukemia = test system: RPMI-8226 leukemia
RXF 393 renal = test system: RXF 393 renal
SF-268 CNS = test system: SF-268 CNS
SF-295 CNS = test system: SF-295 CNS
SF-539 CNS = test system: SF-539 CNS
SK-MEL-2 melanoma = test system: SK-MEL-2 melanoma
SK-MEL-28 melanoma = test system: SK-MEL-28 melanoma
SK-MEL-5 melanoma = test system: SK-MEL-5 melanoma
SK-OV-3 ovarian = test system: SK-OV-3 ovarian
SN12C renal = test system: SN12C renal
SNB-19 CNS = test system: SNB-19 CNS
SNB-75 CNS = test system: SNB-75 CNS
SR leukemia = test system: SR leukemia
SW-620 colon = test system: SW-620 colon
T-47D breast = test system: T-47D breast
TK-10 renal = test system: TK-10 renal
U251 CNS = test system: U251 CNS
UACC-257 melanoma = test system: UACC-257 melanoma
UACC-62 melanoma = test system: UACC-62 melanoma
UO-31 renal = test system: UO-31 renal

`CCCn1c(=O)c2[nH]c(-c3ccc(OCc4nc5ccc(C)cc5[nH]4)cc3)nc2n(CCC)c1=O` was tested. Which GI50 (786-0 renal) did it give?
Its GI50 is 3.06 µM.

And the TGI (786-0 renal)?
Its TGI is 12.1 µM.

What about the GI50 (A498 renal) of the same molecule?
Its GI50 is 2.43 µM.

And the TGI (A498 renal)?
The TGI was 10.6 µM.

What about the GI50 (A549 NSCLC) of the same molecule?
The GI50 was 13.5 µM.

And the TGI (A549 NSCLC)?
The TGI was > 100 µM.

What about the GI50 (ACHN renal) of the same molecule?
Its GI50 is 3.29 µM.

And the TGI (ACHN renal)?
Its TGI is 13.4 µM.

And the GI50 (BT-549 breast)?
The GI50 was 14 µM.

And the TGI (BT-549 breast)?
The TGI was 46.7 µM.

And the GI50 (CAKI-1 renal)?
The GI50 was 4.55 µM.

And the TGI (CAKI-1 renal)?
The TGI was 25.1 µM.

What about the GI50 (CCRF-CEM leukemia) of the same molecule?
Its GI50 is 32.8 µM.

And the TGI (CCRF-CEM leukemia)?
Its TGI is > 100 µM.

What about the GI50 (COLO 205 colon) of the same molecule?
Its GI50 is 84.7 µM.

And the TGI (COLO 205 colon)?
The TGI was > 100 µM.

And the GI50 (DU-145 prostate)?
The GI50 was 66.4 µM.

What about the TGI (DU-145 prostate) of the same molecule?
Its TGI is > 100 µM.

And the GI50 (EKVX NSCLC)?
The GI50 was 20.7 µM.

And the TGI (EKVX NSCLC)?
The TGI was > 100 µM.

What about the GI50 (HCC-2998 colon) of the same molecule?
The GI50 was 29 µM.

What about the TGI (HCC-2998 colon) of the same molecule?
The TGI was > 100 µM.

And the GI50 (HCT-116 colon)?
The GI50 was 11.3 µM.

And the TGI (HCT-116 colon)?
Its TGI is 27.8 µM.

What about the GI50 (HCT-15 colon) of the same molecule?
Its GI50 is 14.7 µM.

What about the TGI (HCT-15 colon) of the same molecule?
The TGI was > 100 µM.

And the GI50 (HL-60(TB) leukemia)?
The GI50 was 46.2 µM.

What about the TGI (HL-60(TB) leukemia) of the same molecule?
Its TGI is > 100 µM.

And the GI50 (HOP-62 NSCLC)?
Its GI50 is 4.12 µM.

And the TGI (HOP-62 NSCLC)?
The TGI was 16.9 µM.

What about the GI50 (HOP-92 NSCLC) of the same molecule?
Its GI50 is 2.29 µM.

What about the TGI (HOP-92 NSCLC) of the same molecule?
The TGI was 9.1 µM.

And the GI50 (HS 578T breast)?
The GI50 was 2.36 µM.

What about the TGI (HS 578T breast) of the same molecule?
The TGI was 11.1 µM.

And the GI50 (HT29 colon)?
Its GI50 is 29.6 µM.

And the TGI (HT29 colon)?
The TGI was > 100 µM.

And the GI50 (IGROV1 ovarian)?
The GI50 was 10.1 µM.

What about the TGI (IGROV1 ovarian) of the same molecule?
The TGI was 38.7 µM.

What about the GI50 (K-562 leukemia) of the same molecule?
The GI50 was 22.3 µM.

What about the TGI (K-562 leukemia) of the same molecule?
Its TGI is > 100 µM.

And the GI50 (KM12 colon)?
Its GI50 is > 100 µM.

What about the TGI (KM12 colon) of the same molecule?
The TGI was > 100 µM.

And the GI50 (LOX IMVI melanoma)?
The GI50 was 4.72 µM.

What about the TGI (LOX IMVI melanoma) of the same molecule?
Its TGI is 17.3 µM.

And the GI50 (M14 melanoma)?
Its GI50 is 21.3 µM.

What about the TGI (M14 melanoma) of the same molecule?
The TGI was > 100 µM.

And the GI50 (MALME-3M melanoma)?
Its GI50 is 7.28 µM.

And the TGI (MALME-3M melanoma)?
The TGI was 20.5 µM.

And the GI50 (MCF7 breast)?
Its GI50 is 7.35 µM.

And the TGI (MCF7 breast)?
Its TGI is 36.6 µM.

What about the GI50 (MDA-MB-231 breast) of the same molecule?
The GI50 was 3.48 µM.

What about the TGI (MDA-MB-231 breast) of the same molecule?
The TGI was 14.5 µM.

And the GI50 (MDA-MB-435)?
Its GI50 is 31 µM.

And the TGI (MDA-MB-435)?
The TGI was > 100 µM.

And the GI50 (MDA-MB-468 breast)?
Its GI50 is 8.62 µM.

What about the TGI (MDA-MB-468 breast) of the same molecule?
The TGI was 27.6 µM.

What about the GI50 (MOLT-4 leukemia) of the same molecule?
Its GI50 is 12.2 µM.

And the TGI (MOLT-4 leukemia)?
The TGI was > 100 µM.

And the GI50 (NCI-H226 lung)?
Its GI50 is 2.91 µM.

And the TGI (NCI-H226 lung)?
The TGI was 13.2 µM.

And the GI50 (NCI-H23 lung)?
Its GI50 is 12 µM.

And the TGI (NCI-H23 lung)?
Its TGI is 24.4 µM.

And the GI50 (NCI-H460 lung)?
Its GI50 is 6.04 µM.

What about the TGI (NCI-H460 lung) of the same molecule?
Its TGI is 23.1 µM.

And the GI50 (NCI-H522 lung)?
The GI50 was 17.2 µM.

And the TGI (NCI-H522 lung)?
The TGI was 42.3 µM.

And the GI50 (NCI/ADR-RES ovarian)?
Its GI50 is 11 µM.

And the TGI (NCI/ADR-RES ovarian)?
The TGI was 64.5 µM.

What about the GI50 (OVCAR-3 ovarian) of the same molecule?
The GI50 was 8.62 µM.

What about the TGI (OVCAR-3 ovarian) of the same molecule?
Its TGI is 85.9 µM.

And the GI50 (OVCAR-4 ovarian)?
Its GI50 is 2.73 µM.

What about the TGI (OVCAR-4 ovarian) of the same molecule?
Its TGI is > 100 µM.

And the GI50 (OVCAR-5 ovarian)?
The GI50 was 18.5 µM.

What about the TGI (OVCAR-5 ovarian) of the same molecule?
The TGI was 76.8 µM.

What about the GI50 (OVCAR-8 ovarian) of the same molecule?
The GI50 was 5.3 µM.

What about the TGI (OVCAR-8 ovarian) of the same molecule?
Its TGI is 24.8 µM.

What about the GI50 (PC-3 prostate) of the same molecule?
The GI50 was 9.66 µM.

What about the TGI (PC-3 prostate) of the same molecule?
The TGI was > 100 µM.

What about the GI50 (RPMI-8226 leukemia) of the same molecule?
The GI50 was 9.71 µM.

What about the TGI (RPMI-8226 leukemia) of the same molecule?
The TGI was > 100 µM.

What about the GI50 (RXF 393 renal) of the same molecule?
The GI50 was 1.62 µM.

And the TGI (RXF 393 renal)?
Its TGI is 5.12 µM.

What about the GI50 (SF-268 CNS) of the same molecule?
The GI50 was 12.6 µM.

And the TGI (SF-268 CNS)?
Its TGI is > 100 µM.

What about the GI50 (SF-295 CNS) of the same molecule?
The GI50 was 2.65 µM.

What about the TGI (SF-295 CNS) of the same molecule?
The TGI was 13.1 µM.

What about the GI50 (SF-539 CNS) of the same molecule?
Its GI50 is 2.61 µM.

What about the TGI (SF-539 CNS) of the same molecule?
The TGI was 7.98 µM.

What about the GI50 (SK-MEL-2 melanoma) of the same molecule?
The GI50 was 16.8 µM.

What about the TGI (SK-MEL-2 melanoma) of the same molecule?
The TGI was 33.2 µM.

What about the GI50 (SK-MEL-28 melanoma) of the same molecule?
The GI50 was 15.9 µM.

What about the TGI (SK-MEL-28 melanoma) of the same molecule?
Its TGI is > 100 µM.

And the GI50 (SK-MEL-5 melanoma)?
The GI50 was 13.7 µM.

And the TGI (SK-MEL-5 melanoma)?
Its TGI is 31.5 µM.

And the GI50 (SK-OV-3 ovarian)?
The GI50 was 12.1 µM.

And the TGI (SK-OV-3 ovarian)?
The TGI was 27 µM.

And the GI50 (SN12C renal)?
Its GI50 is 3.78 µM.

And the TGI (SN12C renal)?
Its TGI is 18.1 µM.

What about the GI50 (SNB-19 CNS) of the same molecule?
The GI50 was 6 µM.

And the TGI (SNB-19 CNS)?
Its TGI is 28.6 µM.

What about the GI50 (SNB-75 CNS) of the same molecule?
Its GI50 is 1.54 µM.

What about the TGI (SNB-75 CNS) of the same molecule?
Its TGI is 4.62 µM.

What about the GI50 (SR leukemia) of the same molecule?
Its GI50 is > 100 µM.

And the TGI (SR leukemia)?
The TGI was > 100 µM.

And the GI50 (SW-620 colon)?
Its GI50 is 32.5 µM.

What about the TGI (SW-620 colon) of the same molecule?
The TGI was > 100 µM.

What about the GI50 (T-47D breast) of the same molecule?
The GI50 was 16.9 µM.

And the TGI (T-47D breast)?
The TGI was 47.2 µM.

And the GI50 (TK-10 renal)?
Its GI50 is 10.7 µM.

What about the TGI (TK-10 renal) of the same molecule?
The TGI was 23.1 µM.

And the GI50 (U251 CNS)?
The GI50 was 4.06 µM.

What about the TGI (U251 CNS) of the same molecule?
The TGI was 17 µM.

What about the GI50 (UACC-257 melanoma) of the same molecule?
Its GI50 is 40.9 µM.

And the TGI (UACC-257 melanoma)?
The TGI was > 100 µM.

And the GI50 (UACC-62 melanoma)?
Its GI50 is 10 µM.

What about the TGI (UACC-62 melanoma) of the same molecule?
Its TGI is 25.6 µM.

What about the GI50 (UO-31 renal) of the same molecule?
The GI50 was 1.98 µM.

And the TGI (UO-31 renal)?
Its TGI is 7.27 µM.
